Experimental data as given in patent US8426429B2, “2-amino-quinazoline derivatives useful as inhibitors of β-secretase (BACE)” (Jansssen Pharmaceutica N.V., priority 2004, dated 2013).

Biological target: T1, β-secretase (BACE) (Homo sapiens, UniProt P56817)
T1 construct: purchased Panvera
Assay: BACE FS1 % Inhibition Assay
Type: biochemical
Method in brief: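 Percent inhibition per compound concentration was referenced to vehicle-treated enzyme and no-enzyme wells. Enzyme at a 4 μg/mL working stock plus compound was mixed for 20 min at room temperature before the FS1 substrate (300 μg/mL working stock) was added for a 1 h room-temperature reaction.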

T1 sequence (P56817 46-501): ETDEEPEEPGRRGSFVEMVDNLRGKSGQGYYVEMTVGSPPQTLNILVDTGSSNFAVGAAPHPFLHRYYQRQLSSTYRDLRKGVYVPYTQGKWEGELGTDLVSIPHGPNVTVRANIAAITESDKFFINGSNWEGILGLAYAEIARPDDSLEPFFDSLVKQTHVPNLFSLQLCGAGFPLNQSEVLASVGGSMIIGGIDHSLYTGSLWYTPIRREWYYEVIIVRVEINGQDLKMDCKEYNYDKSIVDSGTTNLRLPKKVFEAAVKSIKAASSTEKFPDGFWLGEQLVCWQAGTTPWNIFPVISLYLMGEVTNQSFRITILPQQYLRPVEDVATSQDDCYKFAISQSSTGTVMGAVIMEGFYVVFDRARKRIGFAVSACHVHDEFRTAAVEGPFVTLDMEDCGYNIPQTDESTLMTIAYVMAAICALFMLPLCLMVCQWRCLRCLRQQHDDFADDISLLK

Row | SMILES | % Inhibition (FS) (0.3 μM test compound) [%] | % Inhibition (FS) (1 μM test compound) [%] | % Inhibition (FS) (3 μM test compound) [%] | further results
1 | Cc1cccc(Nc2ccc3c(c2)CN(Cc2cccc(C(=O)N(C)C4CCCCC4)c2)C(N)=N3)c1 [Compound 435] | <30 | <30 | 85 | 
2 | COC(=O)[C@@H](COCc1ccccc1)N(C)C(=O)CC[C@@H](C1CCCCC1)N1Cc2cc(Oc3ccccc3)ccc2N=C1N [Compound 779] |  |  |  | % Inhibition (FS) (0.3 μM compound, FS1 substrate): 102%; % Inhibition (FS) (1 μM compound, FS1 substrate): 107%; % Inhibition (FS) (3 μM compound, FS1 substrate): 120%
3 | COC1CCCC(C(=O)NCCN2Cc3cc(-c4ccccc4C)ccc3N=C2N)C1 (stereo not shown) [Compound 696] |  |  |  | % Inhibition (FS) (0.3 μM compound, FS1 substrate): <30%; % Inhibition (FS) (1 μM compound, FS1 substrate): 72%
4 | CCCCCOc1ccc2c(c1)CN(Cc1cccc(C(=O)N(C)C3CCCCC3)c1)C(N)=N2 [Compound 516] | <30 | <30 | <30 | 
5 | CN(C(=O)c1cccc(CN2Cc3cc(Oc4cccc(Oc5ccccc5)c4)ccc3N=C2N)c1)C1CCCCC1 [Compound 236] | <30 | 37 | 49 | 
6 | CC(c1ccccc1)c1ccc2c(c1)CN(Cc1cccc(C(=O)N(C)C3CCCCC3)c1)C(N)=N2 (stereo not shown) [Compound 332] | <30 | <30 | <30 | 
7 | CC(C)c1ccccc1Oc1ccc2c(c1)CN(C(CC(=O)NC1CCCCC1)C1CCCCC1)C(N)=N2 (stereo not shown) [Compound 313] | <30 | <30 | 31 | 
8 | CN(C(=O)c1cccc(CN2Cc3cc(Sc4cccc5ccccc45)ccc3N=C2N)c1)C1CCCCC1 [Compound 414] | <30 | <30 | 27 | 
9 | CC(C)CCC(=O)NC[C@@H](C(C)C)N1Cc2cc(Oc3ccccc3)ccc2N=C1N [Compound 564] | 112 | 119 | 129 | 
10 | COc1ccccc1-c1ccc2c(c1)CN([C@@H](CCC(=O)N(C)Cc1cnn(-c3ccccc3)c1)C1CCCCC1)C(N)=N2 [Compound 717] |  |  |  | % Inhibition (FS) (0.3 μM compound, FS1 substrate): 33%; % Inhibition (FS) (1 μM compound, FS1 substrate): 39%; % Inhibition (FS) (3 μM compound, FS1 substrate): 72%
11 | CN(C(=O)c1cccc(CN2Cc3cc(Oc4ccccc4-n4cccc4)ccc3N=C2N)c1)C1CCCCC1 [Compound 471] | <30 | <30 | 38 | 
12 | CN(Cc1csc(-c2ccccc2)n1)C(=O)CC[C@@H](C1CCCCC1)N1Cc2cc(-c3ccccc3F)ccc2N=C1N [Compound 722] |  |  |  | % Inhibition (FS) (0.3 μM compound, FS1 substrate): 35%; % Inhibition (FS) (1 μM compound, FS1 substrate): 35%; % Inhibition (FS) (3 μM compound, FS1 substrate): 78%
13 | CC(=O)Nc1ccc(Sc2ccc3c(c2)CN(Cc2cccc(C(=O)N(C)C4CCCCC4)c2)C(N)=N3)cc1 [Compound 417] | <30 | <30 | 78 | 
14 | NC1=Nc2ccc(-c3ccccc3F)cc2CN1CCNC(=O)C12CC3CC(CC(C3)C1)C2 [Compound 644] | 46 | 72 | 104 | 
15 | CN(C(=O)c1cccc(CN2Cc3cc(Oc4ccccc4CC(N)=O)ccc3N=C2N)c1)C1CCCCC1 [Compound 235] | <30 | 46 | <30 | 
16 | CCCCCC1CC2(C(=O)NCCN3Cc4cc(Oc5ccccc5)ccc4N=C3N)CCC1CC2 (stereo not shown) [Compound 194] | <30 | 42 | 38 | 
17 | CN(C(=O)c1cccc(CN2Cc3cc(Sc4ccc5ccccc5c4)ccc3N=C2N)c1)C1CCCCC1 [Compound 415] | <30 | <30 | 63 | 
18 | CN(C(=O)c1ccc2c(c1)C(N1Cc3cc(Oc4ccccc4)ccc3N=C1N)CC2)C1CCCCC1 (stereo not shown) [Compound 145] |  |  | <30 | % Inhibition (FS) (10 μM test compound): 37%
19 | CC(CC(=O)NCCN1Cc2cc(-c3ccccc3)ccc2N=C1N)C(F)(F)F (stereo not shown) [Compound 685] |  |  |  | % Inhibition (FS) (0.3 μM compound, FS1 substrate): 50%; % Inhibition (FS) (1 μM compound, FS1 substrate): 90%
20 | CC(C)CC(=O)NC[C@@H](C(C)C)N1Cc2cc(Oc3ccccc3)ccc2N=C1N [Compound 563] | 101 | 119 | 127 | 
21 | CC(=O)N1CCC(C(=O)NCCN2Cc3cc(C4=CCCCC4)ccc3N=C2N)CC1 [Compound 705] |  |  |  | % Inhibition (FS) (0.3 μM compound, FS1 substrate): <30%; % Inhibition (FS) (1 μM compound, FS1 substrate): <30%; % Inhibition (FS) (3 μM compound, FS1 substrate): <30%

Row | SMILES | % Inhibition (FS) (0.3 μM test compound) [%] | % Inhibition (FS) (1 μM test compound) [%] | % Inhibition (FS) (3 μM test compound) [%] | further results
22 | CN(C(=O)CCC(C1CCOCC1)N1Cc2cc(Oc3ccccc3)ccc2N=C1N)C1CCCCC1 (stereo not shown) [Compound 619] | 119 | 118 | 125 | 
23 | COC1CCCC(C(=O)NCCN2Cc3cc(-c4ccccc4)ccc3N=C2N)C1 (stereo not shown) [Compound 703] |  |  |  | % Inhibition (FS) (0.3 μM compound, FS1 substrate): <30%; % Inhibition (FS) (1 μM compound, FS1 substrate): 46%; % Inhibition (FS) (3 μM compound, FS1 substrate): 83%
24 | NC1=Nc2ccc(Oc3ccccc3)cc2CN1C(CC(=O)NC1C2CC3CC(C2)CC1C3)C1CCCCC1 (stereo not shown) [Compound 314] | <30 | 45 | 85 | 
25 | CN(C(=O)CCC(C1CCCCC1)N1Cc2cc(Oc3ccccc3)ccc2N=C1N)C1CCC(c2nn[nH]n2)CC1 (stereo not shown) [Compound 770] |  |  |  | % Inhibition (FS) (0.3 μM compound, FS1 substrate): <30%; % Inhibition (FS) (1 μM compound, FS1 substrate): <30%; % Inhibition (FS) (3 μM compound, FS1 substrate): <30%
26 | CC(=O)Nc1ccc(C(=O)NCCN2Cc3cc(-c4cccc(CO)c4)ccc3N=C2N)cc1 [Compound 593] | <30 | <30 | <30 | 
27 | NC1=Nc2ccc(Oc3ccccc3)cc2CN1CCCCNC(=O)C1CCCC1 [Compound 116] |  |  | 39 | % Inhibition (FS) (10 μM test compound): 81%
28 | CC(C)C(CC(=O)N(C(C)C)C1CCCCC1)N1Cc2cc(Oc3ccccc3)ccc2N=C1N (stereo not shown) [Compound 202] | <30 | <30 | <30 | 
29 | NC(=O)c1ccccc1-c1ccc2c(c1)CN(CCNC(=O)C1CCCCC1)C(N)=N2 [Compound 543] | <30 | <30 | <30 | 
30 | Cc1ccc(-c2ccc3c(c2)CN(CCNC(=O)C2CCCCC2)C(N)=N3)cc1 [Compound 628] | <30 | <30 | 32 | 
31 | CCCC(CNC(=O)C12CC3CC(CC(C3)C1)C2)N1Cc2cc(Oc3ccccc3)ccc2N=C1N (stereo not shown) [Compound 602] |  |  |  | % Inhibition (FS) (0.3 μM test compound, 0.3 µM): 78%; % Inhibition (FS) (1 μM test compound, 1 µM): 113%; % Inhibition (FS) (3 μM test compound, 3 µM): 121%
32 | CCCCCCCCC(CCC(=O)N(C)C1CCCCC1)N1Cc2cc(Oc3ccccc3)ccc2N=C1N (stereo not shown) [Compound 210] | <30 | <30 | <30 | 
33 | CC(C)N(C(=O)CC(C1CCCCC1)N1Cc2cc(Oc3ccccc3)ccc2N=C1N)C1CCCCC1 (stereo not shown) [Compound 200] | <30 | <30 | <30 | 
34 | Cc1cccc(C)c1Oc1ccc2c(c1)CN(Cc1cccc(C(=O)N(C)C3CCCCC3)c1)C(N)=N2 [Compound 475] | <30 | <30 | <30 | 
35 | NC1=Nc2ccc(Oc3ccccc3)cc2CN1C(c1ccccc1)c1cccc(C(=O)N(C2CCCCC2)C2CCCCC2)c1 (stereo not shown) [Compound 132] |  |  | 54 | % Inhibition (FS) (10 μM test compound): 118%
36 | CN(C(=O)CCC(C1CCOCC1)N1Cc2cc(Oc3ccccc3)ccc2N=C1N)C1CCC(C(=O)O)CC1 (stereo not shown) [Compound 743] |  |  |  | % Inhibition (FS) (3 μM compound, FS1 substrate): 130%
37 | NC1=Nc2ccc(Oc3ccccc3)cc2CN1Cc1ocnc1C(=O)NC1CCCCC1 [Compound 640] | <30 | <30 | <30 | 
38 | CCCC(CCC)C(=O)N1CCCCC(N2Cc3cc(Oc4ccccc4)ccc3N=C2N)C1 (stereo not shown) [Compound 552] | <30 | <30 | 36 | 
39 | NC1=Nc2ccc(Oc3ccccc3)cc2CN1C1c2ccccc2-c2cccc(C(=O)N(C3CCCCC3)C3CCCCC3)c21 (stereo not shown) [Compound 124] |  |  | 56 | % Inhibition (FS) (10 μM test compound): 67%
40 | COc1ccccc1-c1ccc2c(c1)CN(CCNC(=O)CN)C(N)=N2 [Compound 490] | <30 | <30 | <30 | 
41 | CN(C(=O)CCC(C)(C)N1Cc2cc(Oc3ccccc3)ccc2N=C1N)C1CCCCC1 [Compound 738] |  |  |  | % Inhibition (FS) (0.3 μM compound, FS1 substrate): 14%; % Inhibition (FS) (1 μM compound, FS1 substrate): 28%; % Inhibition (FS) (3 μM compound, FS1 substrate): 61%
